In one data set the test system is ulcer tissue. The settings on record: chelate versus simple mixture; cited from earlier work.
Data set [1] in a line: Particle size distribution of polymeric L-carnosine zinc. Format: physicochemical. To be noted: L-carnosine zinc used in Comparative Example 1. The procedure: Step 2) Polymeric L-carnosine zinc with a particle size range of about 0.1 micron to about 85 microns, with a particle distribution such that 90% of the particles are 24.925 microns or smaller, 50% are 5.664 microns or smaller, and 10% are 0.826 or smaller, and the mean diameter was 9.878 microns was added to the hydrogel prepared in Step 1 to produce a composite polymeric hydrogel consisting of 150 mg L-carnosine zinc suspended in 5 ml of hydrogel.

“N-(3-aminopropionyl)-L-histidinatozinc [L-carnosine zinc]”: the “effectiveness compared with co-administration of a zinc salt together with L-carnosine” value in the data set with ulcer tissue is listed as “more effective than the co-administration of a zinc salt together with L-carnosine in a simple mixture”. In addition, in data set [1], the mean diameter turned out to be 9.878 microns; the “particle distribution, 10% of the particles are this size or smaller” value is at most 0.826; the “particle distribution, 50% of the particles are this size or smaller” value is on record as at most 5.664 microns; the “particle distribution, 90% of the particles are this size or smaller” value is at most 24.925 microns.
